target: T1, Human GPR120 short form (Homo sapiens, UniProt Q5NUL3); test: Human GPR120 calcium flux assay, Procedure Calcium A; type: cell-based; conditions: HEK-293 cells expressing human GPR120 short form, 2500 cells/well, FLIPR
T1 construct: expressed in transfected cells
T1 sequence (Q5NUL3 1-361): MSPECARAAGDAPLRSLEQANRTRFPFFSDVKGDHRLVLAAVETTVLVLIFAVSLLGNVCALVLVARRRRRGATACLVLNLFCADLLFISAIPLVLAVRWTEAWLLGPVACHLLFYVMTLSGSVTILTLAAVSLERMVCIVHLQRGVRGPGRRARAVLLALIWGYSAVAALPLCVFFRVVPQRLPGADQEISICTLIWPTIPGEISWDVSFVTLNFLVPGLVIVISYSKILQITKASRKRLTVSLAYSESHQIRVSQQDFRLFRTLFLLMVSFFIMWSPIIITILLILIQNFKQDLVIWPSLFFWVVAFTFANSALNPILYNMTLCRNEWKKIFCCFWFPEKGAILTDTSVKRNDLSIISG
Method in brief: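 HEK293 cells stably expressing the human GPR120 short splice variant (NM_001195755.1) were seeded at 2500 cells/well, serum-starved 1 h and loaded with Fluo-4 NW plus probenecid. Compounds (100–0.012 μM solutions, 0.2% final DMSO) were added, and FLIPR calcium flux was read for 300 s. EC50 came from a variable-slope fit (Hill <2) of Fmax−Fmin.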

| EC50 [nM] | SMILES |
| --- | --- |
| 517 | CCc1ccc(-n2ccc(C(F)(F)F)c2COc2ccc(CCC(=O)O)c(F)c2F)cc1 [Compound 34, 3-(4-[[1-(4-ethylphenyl)-3-(trifluoromethyl)-1H-pyrrol-2-yl]methoxy]-2,3-difluorophenyl)propanoic acid] |
| 1010 | OCCCc1ccc(OCc2c(C(F)(F)F)ccn2-c2ccc(Cl)cc2)c(F)c1F [Compound 29, 3-(4-{[1-(4-Chlorophenyl)-3-(trifluoromethyl)-1H-pyrrol-2-yl]methoxy}-2,3-difluorophenyl)propan-1-ol] |
| 306 | Cc1ccc(-n2ccc(C(F)(F)F)c2COc2c(F)cc(CCC(=O)O)cc2F)cc1 [Compound 39, 3-(3,5-difluoro-4-[[1-(4-methylphenyl)-3-(trifluoromethyl)-1H-pyrrol-2-yl]methoxy]phenyl)propanoic acid] |
| 353 | Cc1c(CCC(=O)O)ccc(OCc2cccn2-c2ccc(Cl)cc2)c1C [Compound 1, 3-(4-{[1-(4-Chlorophenyl)-1H-pyrrol-2-yl]methoxy}-2,3-dimethylphenyl)propanoic acid] |

From patent US8912227B1, “Bicyclic pyrrole derivatives useful as agonists of GPR120” (Janssen Pharmaceutica NV, priority 2014, dated 2014)
